Tests used:
[1] = test system: IFNB, CXCL10, IFIT3, ISG15, IRF7 and OAS1; test: Gene expression analysis by real-time quantitative PCR in THP-1 cells; type: cell-based, Human; details: with cGAMP (1 μg/ml), 6 hours, FIG. 4
Description: To confirm gene expression, THP-1 cells were placed in a 24-well plate (SPL) and treated with the compound of the present invention and cGAMP (1 μg/ml) for 6 hours. After culturing, RNA was extracted from the cells using NucleoSpin RNA Plus (MN). mRNA expression levels of IFNB, CXCL10, IFIT3, ISG15, IRF7 and OAS1 were measured by real-time qPCR (CFX96 Real-Time PCR Detection System, Bio-Rad) using IQ SYBR Green Supermix (Bio-Rad). GAPDH was used as a housekeeping gene to normalize cytokine mRNA levels.

4T1 tumor cells = test: In vivo anticancer activity, 4T1 tumor in BALB/c mice; details: Compound 42 20 mg/kg intravenous once daily + cGAMP 2 μg intratumoral every 4 days, compared to cGAMP alone, FIG. 7
Description: Eight-week-old female BALB/c mice (DBL) were used for experiments and inoculated subcutaneously with 0.5×10^6 4T1 tumor cells using PBS as the vehicle on the right flank. Following tumor implantation, mice were randomized into treatment groups, each consisting of N=4 (vehicle N=1). On day 5 after tumor cell injection, when the tumor volume reached about 100 mm^3, Compound 42 or vehicle was administrated by intravenous injection (20 mg/kg) or vehicle (5% DMSO, 5% Tween 80 in PBS). 2′3′-cGAMP (InvivoGen) was injected by intratumoral injection (2 μg in PBS). Compound 42 was injected once daily, and cGAMP was injected once every 4 days. Tumor and body weight measurements were performed using digital calipers and a weigh scale, respectively. Tumor volume was estimated using the following Equation 1:
Tumor volume=(length×width^2)/2 [Equation 1]
Mice were euthanized when the tumor volume reached about 2,000 mm^3.

IRF3, STAT1 = test: Western blot analysis of TBK, IRF3 and STAT1 activity; type: cell-based; details: induced by cGAMP, FIG. 5
Description: Cells were cultured and lysed in RIPA buffer containing a protease and phosphatase inhibitor cocktail (Thermo Fisher Scientific) and benzonase nuclease (Sigma). After centrifugation, the supernatant was collected, and the amount of protein was measured using a BCA protein assay kit (Thermo Fisher Scientific). Cell lysates were analyzed by SDS-PAGE using an acrylamide gel. After SDS-PAGE, proteins were transferred to a PVDF membrane, blocked with 5% BSA, and then washed with TBST. The membrane was incubated with primary antibodies (anti-STING, anti-pSTING, anti-TBK, anti-pTBK, anti-IRF3, anti-pIRF3, anti-STAT1, anti-pSTAT1, and anti-actin) overnight at 4° C. After washing with TBST, the membrane was treated with HRP-conjugated secondary antibodies at room temperature for 1 hour. The membrane was washed with TBST and treated with ECL solution (Thermo Fisher Scientific). Chemical fluorescence images were taken with ChemiDOC (Bio-Rad).

`CC(=O)c1ccc(-c2cc(C(=O)c3ccc(C(F)(F)F)cc3)n3ccccc23)cc1` [Compound 42] was tested, and the “cGAMP-induced expression of interferon-stimulated genes (IFN-beta, IP-10, ISG15, IRF7, IFIT3, OAS1)” value [1] was “significantly increased”, the tumor volume (4T1 tumor cells) was “effectively reduced the tumor volume” and the “phosphorylation of IRF3 and STAT1” value (IRF3, STAT1) was “increased phosphorylation of IRF3 and phosphorylation of STAT1”.

— patent publication US20230390319A1, “INTERFERON GENE STIMULATOR COMPOSITION COMPRISING INDOLIZINE DERIVATIVE AS ACTIVE INGREDIENT” (AJOU UNIVERSITY INDUSTRY-ACADEMIC COOPERATION FOUNDATION, priority 2020, published 2023)
